Structures are written as SMILES.

Test [1] addresses T1, Enoyl-acyl-carrier protein reductase (Plasmodium falciparum, UniProt Q965D5).
T1 sequence (Q965D5 whole entry): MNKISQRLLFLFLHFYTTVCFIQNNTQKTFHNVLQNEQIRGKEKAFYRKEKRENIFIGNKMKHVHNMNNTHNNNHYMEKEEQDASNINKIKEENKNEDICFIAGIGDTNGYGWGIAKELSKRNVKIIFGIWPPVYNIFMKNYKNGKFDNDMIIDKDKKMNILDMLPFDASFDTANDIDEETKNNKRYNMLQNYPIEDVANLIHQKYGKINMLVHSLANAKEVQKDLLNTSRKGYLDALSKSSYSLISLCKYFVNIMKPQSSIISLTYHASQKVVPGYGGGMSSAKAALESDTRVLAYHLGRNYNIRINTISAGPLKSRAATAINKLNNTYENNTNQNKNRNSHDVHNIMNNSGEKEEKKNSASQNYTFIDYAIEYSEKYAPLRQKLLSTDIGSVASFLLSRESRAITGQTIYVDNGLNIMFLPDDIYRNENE
Briefly: Inhibition of Plasmodium falciparum ENR.

For test [2], the target named is T2, Enoyl-[acyl-carrier-protein] reductase [NADH] FabI (Escherichia coli K-12, UniProt P0AEK4).
T2 sequence (P0AEK4 whole entry): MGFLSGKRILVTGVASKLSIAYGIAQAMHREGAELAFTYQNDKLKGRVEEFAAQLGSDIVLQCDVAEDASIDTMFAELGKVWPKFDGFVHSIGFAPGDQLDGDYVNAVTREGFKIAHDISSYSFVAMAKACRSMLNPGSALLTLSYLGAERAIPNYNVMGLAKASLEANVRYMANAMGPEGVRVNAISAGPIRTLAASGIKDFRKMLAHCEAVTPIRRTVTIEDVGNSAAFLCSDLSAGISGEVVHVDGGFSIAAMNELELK
Briefly: Inhibition of Escherichia coli ENR.

In test [3] the target is T1, Enoyl-acyl-carrier protein reductase. The test is described as follows: Inhibition of Plasmodium falciparum ENR using NADH substrate.
The target is the same in test [4]. Briefly: Inhibition of Plasmodium falciparum ENR using crotonyl-CoA substrate.
The target is the same in test [5]. Briefly: Inhibition of Plasmodium falciparum ENR in presence of triclosan.
For test [6] the target is unchanged. Briefly: Inhibition of Plasmodium falciparum ENR in presence of ECG.
For test [7] the target is unchanged. The test is described as follows: Inhibition of Plasmodium falciparum ENR by fluorescence quenching in presence of EGCG.
Test [8] shares this target. The test is described as follows: Inhibition of Plasmodium falciparum ENR by fluorescence quenching in presence of ECG.
Test [9] has the same target. The test is described as follows: Inhibition of Plasmodium falciparum ENR by fluorescence quenching in presence of EGC.
For test [10] the target is unchanged. Briefly: Inhibition of Plasmodium falciparum ENR by fluorescence quenching in presence of quercetin.
The target is the same in test [11]. Briefly: Inhibition of Plasmodium falciparum ENR by fluorescence quenching in presence of butein.
For test [12] the target is unchanged. Briefly: Inhibition of Plasmodium falciparum ENR in presence of EGC.
Test [13] has the same target. The test is described as follows: Inhibition of Plasmodium falciparum ENR in presence of EGCG.
The target is the same in test [14]. The test is described as follows: Inhibition of Plasmodium falciparum ENR in presence of EGCG by dilution assay.
Test [15] has the same target. The test is described as follows: Inhibition of Plasmodium falciparum ENR in presence of EGC by dilution assay.
For test [16] the target is unchanged. Briefly: Inhibition of Plasmodium falciparum ENR in presence of ECG by dilution assay.
The target is the same in test [17]. Briefly: Inhibition of Plasmodium falciparum ENR in presence of quercetin by dilution assay.
The target is the same in test [18]. Briefly: Inhibition of Plasmodium falciparum ENR in presence of butein by dilution assay.
Test [19] has the same target. The test is described as follows: Inhibition of Plasmodium falciparum ENR in presence of quercetin.
Test [20] has the same target. The test is described as follows: Inhibition of Plasmodium falciparum ENR in presence of butein.

The IC50 is the point on the concentration scale where inhibition reaches its midpoint. Lower therefore signals inhibition by little substance. Usually Ki stands for the dissociation constant of the complex between target and ligand, obtained from inhibition or displacement. In the case of `O=C(O[C@@H]1Cc2c(O)cc(O)cc2O[C@@H]1c1ccc(O)c(O)c1)c1cc(O)c(O)c(O)c1` [EPICATECHIN GALLATE], the IC50 was 500 nM in [1] and 10 µM in [2]. The Ki was determined as 291 nM in test [3], 102 nM in test [4] and 16 nM in test [5].
For the molecule `O=C(O[C@@H]1Cc2c(O)cc(O)cc2O[C@@H]1c1cc(O)c(O)c(O)c1)c1cc(O)c(O)c(O)c1` [EPIGALOCATECHIN GALLATE], the results for the IC50 in [1] and in test [2] were 250 nM and 15 µM, respectively. Also, the results for the Ki in test [3], in [4] and in [5] were 186 nM, 79 nM and 8 nM, respectively.
On to `O=C(/C=C/c1ccc(O)c(O)c1)c1ccc(O)cc1O` [BUTEIN], for which the figures for the IC50 in [1] and in [2] were 12500 nM and 30 µM, respectively. For the same molecule, the Ki worked out at 5500 nM in test [3], 2970 nM in test [4] and 14 nM in [5].
In the case of `O=c1c(O)c(-c2ccc(O)c(O)c2)oc2cc(O)cc(O)c12` [QUERCETIN], the IC50 was determined as 2500 nM in [1] and 20 µM in test [2]. Also, the Ki in test [3] turned out to be 1090 nM; in [4], 473 nM; in [5], 22 nM.
As to `Oc1cc(O)c2c(c1)O[C@H](c1cc(O)c(O)c(O)c1)[C@H](O)C2` [EPIGALLOCATECHIN], the IC50 was 7000 nM in test [1] and more than 100 µM in [2]. For the same molecule, the Ki came out at 3750 nM in [3], 2000 nM in test [4] and 17.6 nM in [5].
Take `Oc1cc(Cl)ccc1Oc1ccc(Cl)cc1Cl` [TRICLOSAN]: the Ki in [6] came to 8 nM; in test [7] it was 7.29 nM; in [8], 28.3 nM; in [9] it was 52.7 nM; in test [10], 30.5 nM; in test [11], 71 nM. The Ki in test [12] stood at 8.25 nM; in test [13], 1 nM; in test [14], 1.9 pM; in [15] it was 0.109 nM; in [16] it was 0.0521 nM; in test [17], 0.281 nM. In addition, the Ki in test [18] is 0.798 nM; in test [19], 10 nM; in test [20], 13.7 nM.
